Data on two compounds can be found in patent US10513529B2, “1,2,4-triazolo-[3,4-b]-1,3,4-thiadiazole derivatives” (GALENICA S.A., priority 2016, dated 2019).

For data set [1], the system named is UWB1.289 + BRCA1 human ovarian cancer cell line. Kind of data set: MTT cytostatic-cytotoxic activity, UWB1.289+BRCA1. The following applies: for GI50 / IC50: Homo sapiens, UWB1289, UWB1.289+BRCA1, 48 h treatment; for IC50: kills 50% of the cells; for TGI: UWB1.289+BRCA1, 48 h treatment. Type of data set: cell-based. The gist of the method:
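BRCA1-restored UWB1.289 ovarian cells in McCoy's 5a/RPMI-MEGM with 10% FBS, seeded 24 hours before 48 h treatment with 1-100 μmol/l compound, triplicate wells. Viability by MTT, 3 h, absorbance 540 nm. GI50, TGI and IC50 computed from treated versus 24 h and 72 h control readings.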

Data set [2] deals with UWB1.289 human ovarian cancer cell line (mutant BRCA1). Kind of data set: MTT cytostatic-cytotoxic activity, UWB1.289. Type of data set: cell-based. The following applies: for GI50 / IC50: Homo sapiens; for GI50: UWB1289, 48 h; for GI50 / TGI: UWB1.289, 48 h treatment; for IC50: UWB1289, UWB1.289, 48 h treatment, kills 50% of the cells. The gist of the method: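 UWB1.289 cells (BRCA1-null, p53-mutant) were seeded at 1×10^4 cells/ml per well and treated after 24 h with 1-100 μmol/l compound for 48 h, in triplicate. Viability was read by MTT (3 h, DMSO solubilisation, 540 nm). GI50, TGI and IC50 came from treated versus 24 h and 72 h control absorbances.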

Data set [3] deals with T-47D human breast cancer cell line. Kind of data set: MTT cytostatic-cytotoxic activity, T-47D. Type of data set: cell-based. Particulars: 48 h treatment; for GI50 / IC50: Homo sapiens, T47D; for GI50: 48 h; for IC50: kills 50% of the cells.
The subject of data set [4] is MOLT-4 human acute T-leukemia cell line. Kind of data set: MTT cytostatic-cytotoxic activity, MOLT-4. Particulars: MOLT-4, 48 h treatment; for GI50 / IC50: Homo sapiens; for IC50: kills 50% of the cells. Type of data set: cell-based.
Data set [5] concerns A-549 human lung carcinoma cell line. Kind of data set: MTT cytostatic-cytotoxic activity, A-549. Particulars: for TGI: A-549, 48 h treatment; for GI50 / IC50: Homo sapiens, A549, A-549, 48 h treatment; for IC50: kills 50% of the cells. Type of data set: cell-based.
A short description of a further data set: in vivo. The following applies: both sexes, mouse, in vivo, ip; C57BI/6 mice, acute toxicity. The method, boiled down:
(§1)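 Acute toxicity in male and female C57BI/6 mice, judged by lethality. Compounds given i.p. at several doses starting at 100mg/kg. Dosed as a suspension in corn oil after initial dissolution in 10% DMSO.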

For a further data set, the system named is C57BI/6 mice. Kind of data set: in vivo. The following applies: i.p., acute toxicity. The method, boiled down:
as §1

By GI50 is commonly meant the concentration at which growth is held to half of that of the control. The IC50 is the concentration that inhibits the measured activity by half. What is called TGI is the concentration giving total growth inhibition. A word on the LD50: it is the dose at which mortality reaches 50%. In the case of `COc1cc(Cc2nnc3sc(-c4ccc(N)cc4)nn23)c(S(=O)(=O)N(C)C)cc1OC` [TS71, 3-[2-(N,N-dimethylsulfamoyl)-4,5-dimethoxybenzyl]-6-(4-aminophenyl)-1,2,4-triazolo[3,4-b]-1,3,4-thiazole], the 50% growth inhibitory concentration (GI50) in data set [1] is 90 µM; in data set [2], more than 100 µM; in data set [3] it was more than 100 µM; in data set [4] it was 55 µM; in data set [5], more than 100 µM. For the same compound, the half-maximal inhibitory concentration (IC50) in data set [1], in data set [2], in data set [3], in data set [4] and in data set [5] was more than 100 µM in each case. The TGI in data set [1], in data set [2], in data set [3], in data set [4] and in data set [5] was more than 100 µM throughout. The LD50 in the data set “in vivo” and in the data set on C57BI/6 mice was more than 500 mg/kg throughout. Also, the LD10 with C57BI/6 mice is given as more than 500 mg/kg.
For `COc1cc(Cc2nnc3sc(-c4ccccc4)nn23)c(S(=O)(=O)N(C)C)cc1OC` [TS167, 3-[2-(N,N-dimethylsulfamoyI)-4,5-dimethoxy-benzyl]-6-phenyl-1,2,4-triazolo[3,4-b]-1,3,4-thiazole], the GI50 in data set [1] is 76 µM; in data set [2] it was 56 µM; in data set [3] it was 52 µM; in data set [4], 42 µM; in data set [5], 74 µM. For the same compound, the concentration for half-maximal inhibition (IC50) in data set [1], in data set [2], in data set [3], in data set [4] and in data set [5] was more than 100 µM in each case. Besides, the TGI in data set [1], in data set [2], in data set [3], in data set [4] and in data set [5] was more than 100 µM throughout. The 50% lethal dose (LD50) in the data set “in vivo” and in the data set with C57BI/6 mice was more than 500 mg/kg each time. The LD10 in the data set with C57BI/6 mice is on record as more than 500 mg/kg.
